Here are results for two compounds from patent US5635161A, “Aerosol drug formulations containing vegetable oils” (priority 1995, dated 1997).

A short description of data set [1]: Bioavailability / plasma pharmacokinetics after inhalation (MDI) versus i.v. in tracheostomized dogs. As to conditions: dog, in vivo.
A short description of data set [2]: Visual dispersion quality (physical stability) of MDI formulations in HFA-134a after 24 hours. Further details: key: Poor: Phase separation; top phase clear, bottom phase containing solids; Fair: Partial phase separation; cloudiness in the top phase; Good: Grainy appearance; no phase separation; Clear solution. It is filed as physicochemical. The protocol: MDI formulations for performance testing were prepared in the following manner: For each test formulation, about 5 mL (or 7.4 grams) of glass beads were placed into a suitable glass aerosol container (vial), along with 100 mg to 250 mg drug and a vegetable oil in the amounts needed to produce the desired final concentrations. All vegetable oils used in the following examples were purchased from Sigma® Chemical Company (St. Louis, Mo., 63178). The vials were crimped shut with valves having delivery values (volumes per spray) of 50 μL, and then charged with 10 mL of HFA-134a propellant. The filled vials were then shaken for 24 hours at about 50 cycles/minute to mill and disperse the drug. […] The formulations were then used in the in vitro or in vivo studys described below.
A determination of the effect of vegetable oils on the physical stability of several MDI formulations prepared with HFA-134a was conducted as follows: A vegetable oil was combined either with (1) leuprolide acetate (Table 2a) or (2) 5-LO inhibitor #1 (Table 2b) in the amounts indicated and placed in appropriate transparent aerosol containers (vials). […] The dispersion quality in each preparation was evaluated visually after 24 hours using the following criteria: […]

A short description of data set [3]: Bioavailability / plasma pharmacokinetics after inhalation (MDI) versus i.v. in tracheostomized dogs. Format: in vivo. As to conditions: dog. The protocol:
All quantitative analyses for 5-LO inhibitor #1 formulations were performed by high pressure liquid chromatography (HPLC). The mobile phase composition was 30% v/v tetrahydrofuran in water with 0.128% w/v tetramethylammonium perchlorate and 0.075% v/v trifluoroacetic acid. A Regis Little Champ™ C-18, 4.6×50 mm column was used. The mobile phase flow rate was maintained at 1.0 milliliters/minute (mL/min). Detection wavelength was set at 282 nanometers (nm) and typical injection volumes were between 25 to 50 microliters (μL). Under these conditions, the standard curve for the parent drug was linear between the range of 3 to 75 micrograms/milliliter (μg/mL) (r^2 ≥0.990), with a run time of about 8 minutes.
Using a test preparation containing 25 mg/mL 5-LO inhibitor #1 and 2.5 mg/mL olive oil in HFC-134a propellant, pulmonary absorption and in vivo distribution (i.e. bioavailibility factors) were assessed in four tracheostomized dogs (Marshall Farms, N.Y.) weighing about 10 kilograms (kg) each. Four sprays, delivering 1.25 mg of active 5-LO inhibitor #1/spray, were delivered to the trachea of each dog, resulting in a total drug dose of about 0.5 mg/kg. Blood samples were collected at 0.25, 0.5, 1, 2, 3.5, 5, 7, 9, 12 and 24 hours after dosing and the plasma assayed for drug concentration using the HPLC method described in Example 1A above.

Setting [4] is: inhaled or intranasal, 0.5 mg/kg, Plasma concentration (5-LO Inhibitor Levels).
The mark [5] stands for this setting: iv, 0.5 mg/kg, Plasma concentration (5-LO Inhibitor Levels).
[6] abbreviates: in vivo, inhaled or intranasal, 0.5 mg/kg.
[7] abbreviates: in vivo, inhaled or intranasal, 0.5 mg/kg, Plasma concentration (5-LO Inhibitor Levels).

Entries after “also recorded” stand apart in the source; their conditions may differ.

Consider `CC(C#Cc1ccc(Cc2ccc(F)cc2)s1)N(O)C(N)=O` (stereo not drawn) [5-LO inhibitor #1, N-[3-[5-(4-fluorophenylmethyl)-2-thienyl]-1-methyl-2-propynyl]-N-hydroxyurea], for which the “duration of drug absorption after dosing” value in data set [1] lay within 6 to 8 h. Moreover, the AUC(0-t) (in general, the area under the concentration-time curve up to a stated or last time point) at 24 h in data set [1] (inhaled or intranasal, 0.5 mg/kg) turned out to be 1600 ± 400 ng·h/mL. Moreover, in data set [1] (inhaled or intranasal, 0.5 mg/kg, Bioavailability (absolute lung bioavailability versus i.v.)), the bioavailability (usually dose-corrected exposure relative to a reference, in per cent) is around 64%. In data set [1] (setting [4]), this compound registered a concentration at 2 h of 40 ± 30 ng/mL, a concentration at 3.5 h of 90 ± 60 ng/mL, a concentration at 5 h of 80 ± 60 ng/mL and a concentration at 12 h of 70 ± 40 ng/mL. In data set [1] (iv, 0.5 mg/kg), the AUC(0-t) at 24 h was 5060 ± 1040 ng·h/mL. Besides, the “Plasma concentration (5-LO Inhibitor Levels)” value in data set [1] (iv, 0.5 mg/kg, 0 min) came to 0 ng/mL. Moreover, the “Plasma concentration (5-LO Inhibitor Levels)” value in data set [1] (iv, 0.5 mg/kg, 0.25 h) came out at 590 ± 50 ng/mL. Moreover, in data set [1] (iv, 0.5 mg/kg, 12 h), the “Plasma concentration (5-LO Inhibitor Levels)” value worked out at 180 ± 60 ng/mL. In data set [1] (setting [5]), this compound returned a concentration at 0.08 h of 630 ± 60 ng/mL, a concentration at 0.25 h of around 600 ng/mL, a concentration at 0.5 h of 600 ± 40 ng/mL and a concentration at 1 h of 520 ± 40 ng/mL. In data set [1] (setting [5]), this compound came in with a concentration at 2 h of 480 ± 50 ng/mL, a concentration at 4 h of 370 ± 60 ng/mL, a concentration at 6 h of 300 ± 50 ng/mL and a concentration at 8 h of 230 ± 50 ng/mL. Besides, in data set [1] (setting [5]), the concentration at 12 h is around 200 ng/mL and the concentration at 24 h was 70 ± 20 ng/mL. For the same compound, the “Dispersion Quality (measured after 24 Hours)” value in data set [2] (Table 2b, 5-LO inhibitor #1 formulations in HFA-134a) is “Poor”. In addition, in data set [3] (setting [6]), the Cmax (usually the maximum level reached in the sampled fluid or tissue) was found to be 150 ± 30 ng/mL and the Tmax (in general, the time at which the peak concentration occurs) came out at 10.4 ± 9.23 h. In addition, the “Plasma concentration (5-LO Inhibitor Levels)” value in data set [3] (in vivo, inhaled or intranasal, 0.5 mg/kg, 1 h) is 30 ± 20 ng/mL. In data set [3] (setting [7]), this compound had a concentration at 0.5 h of 10 ± 10 ng/mL, a concentration at 1 h of 30 ng/mL, a concentration at 7 h of 120 ± 70 ng/mL and a concentration at 9 h of 90 ± 50 ng/mL. In data set [3] (setting [7]), this compound had a concentration at 24 h of 50 ± 60 ng/mL. The compound further came in with a concentration at 12 h in data set [3] (in vivo, inhaled or intranasal, 0.5 mg/kg, drug levels maintained) of at least 70 ng/mL. In addition, the “onset and absorption from the lungs (in words)” value in data set [3] (inhalation formulation) was “fast onset of drug absorption; also recorded: rapid onset and prolonged absorption of drug from the lungs”.

As to `CCNC(=O)[C@@H]1CCCN1C(=O)[C@H](CCCNC(=N)N)NC(=O)[C@H](CC(C)C)NC(=O)[C@@H](CC(C)C)NC(=O)[C@H](Cc1ccc(O)cc1)NC(=O)[C@H](CO)NC(=O)[C@H](Cc1c[nH]c2ccccc12)NC(=O)[C@H](Cc1c[nH]cn1)NC(=O)[C@@H]1CCC(=O)N1` [Leuprolide Acetate, leuprolide acetate, reference compound], the “Dispersion Quality (measured after 24 Hours)” value in data set [2] (Table 2a, leuprolide acetate formulations (or excipients alone) in HFA-134a) is on record as “Poor”.
